Converted amounts (≈) assume the structure as drawn. The source made the active and inactive calls. No cut-off for these calls is given here.
Experiments:
Enterococcus faecalis = assay: Antibacterial activity against Enterococcus faecalis J 14365/08 after 24 to 48 hrs by broth micro dilution method; format: functional, organism-based
Mycobacterium avium [1] = assay: Antimycobacterial activity against Mycobacterium avium My 330/88 after 14 days by micromethod; format: functional; conditions: My 330/88, 336 h
Pichia kudriavzevii = assay: Antifungal activity against Candida krusei E28 after 24 to 48 hrs by broth micro dilution method; format: functional, organism-based
Escherichia coli = assay: Antibacterial activity against Escherichia coli ATCC 8739 after 24 to 48 hrs by broth micro dilution method; format: functional, organism-based
Mycobacterium kansasii [2] = assay: Antimycobacterial activity against Mycobacterium kansasii 6509/96 after 7 days by micromethod; format: functional; conditions: 6509/96, 168 h
Candida albicans = assay: Antifungal activity against Candida albicans ATCC 44859 after 24 to 48 hrs by broth micro dilution method; format: functional, organism-based
Klebsiella pneumoniae [3] = assay: Antibacterial activity against ESBL positive Klebsiella pneumoniae J 14368/08 after 24 to 48 hrs by broth micro dilution method; format: functional, organism-based
Candida tropicalis = assay: Antifungal activity against Candida tropicalis 156 after 24 to 48 hrs by broth micro dilution method; format: functional, organism-based
[4] = system: Staphylococcus epidermidis; assay: Antibacterial activity against Staphylococcus epidermidis H 6966/08 after 24 to 48 hrs by broth micro dilution method; format: functional, organism-based
[5] = system: Mycobacterium tuberculosis; assay: Antimycobacterial activity against Mycobacterium tuberculosis My 331/88 after 21 days by micromethod; format: functional; conditions: My 331/88, 504 h
Mycobacterium kansasii [6] = assay: Antimycobacterial activity against Mycobacterium kansasii My 235/80 after 7 days by micromethod; format: functional; conditions: My 235/80, 168 h
Trichosporon asahii = assay: Antifungal activity against Trichosporon asahii 1188 after 24 to 48 hrs by broth micro dilution method; format: functional, organism-based
Mycobacterium kansasii [7] = assay: Antimycobacterial activity against Mycobacterium kansasii 6509/96 after 21 days by micromethod; format: functional; conditions: 6509/96, 504 h
[8] = system: Mycobacterium tuberculosis; assay: Antimycobacterial activity against Mycobacterium tuberculosis My 331/88 after 14 days by micromethod; format: functional; conditions: My 331/88, 336 h
Pseudomonas aeruginosa = assay: Antibacterial activity against Pseudomonas aeruginosa ATCC 9027 after 24 to 48 hrs by broth micro dilution method; format: functional, organism-based
Staphylococcus aureus [9] = assay: Antibacterial activity against methicillin-resistant Staphylococcus aureus H 5996/08 after 24 to 48 hrs by broth micro dilution method; format: functional, organism-based
Mycobacterium avium [10] = assay: Antimycobacterial activity against Mycobacterium avium My 330/88 after 21 days by micromethod; format: functional; conditions: My 330/88, 504 h
Salmonella typhimurium [11] = assay: Mutagenic activity in Salmonella typhimurium TA98 assessed as induction of reverse mutation at 50 uM; format: toxicity, organism-based; conditions: salmonella enterica subsp. enterica serovar typhimurium
Salmonella typhimurium [12] = assay: Mutagenic activity in Salmonella typhimurium TA100 assessed as induction of reverse mutation at 50 uM; format: toxicity, organism-based; conditions: salmonella enterica subsp. enterica serovar typhimurium
Klebsiella pneumoniae [13] = assay: Antibacterial activity against Klebsiella pneumoniae D 11750/08 after 24 to 48 hrs by broth micro dilution method; format: functional, organism-based
Aspergillus fumigatus = assay: Antifungal activity against Aspergillus fumigatus 2318 after 24 to 48 hrs by broth micro dilution method; format: functional, organism-based
Mycobacterium kansasii [14] = assay: Antimycobacterial activity against Mycobacterium kansasii My 235/80 after 21 days by micromethod; format: functional; conditions: My 235/80, 504 h
Klebsiella pneumoniae [15] = assay: Antibacterial activity against Klebsiella pneumoniae J 14368/08 after 24 to 48 hrs by broth micro dilution method; format: functional, organism-based
[16] = system: Trichophyton mentagrophytes; assay: Antifungal activity against Trichophyton mentagrophytes 445 after 72 to 120 hrs by broth micro dilution method; format: functional, organism-based
[17] = Cytotoxicity against CHOK1 cells assessed as viability after 24 hrs by MTT assay; format: cell-based; conditions: Cricetulus griseus, CHO-K1, 24 h
Lichtheimia corymbifera = assay: Antifungal activity against Absidia corymbifera 272 after 24 to 48 hrs by broth micro dilution method; format: functional, organism-based
Staphylococcus aureus [18] = assay: Antibacterial activity against Staphylococcus aureus ATCC 6538 after 24 to 48 hrs by broth micro dilution method; format: functional, organism-based
Mycobacterium kansasii [19] = assay: Antimycobacterial activity against Mycobacterium kansasii My 235/80 after 14 days by micromethod; format: functional; conditions: My 235/80, 336 h
Mycobacterium kansasii [20] = assay: Antimycobacterial activity against Mycobacterium kansasii 6509/96 after 14 days by micromethod; format: functional; conditions: 6509/96, 336 h
Nakaseomyces glabratus = assay: Antifungal activity against Candida glabrata 20/I after 24 to 48 hrs by broth micro dilution method; format: functional, organism-based
Heme oxygenase 1 = target: T1, Heme oxygenase 1 (Homo sapiens, UniProt P09601); assay: Inhibition of heme oxygenase-1 (unknown origin)
T1 sequence (P09601 whole entry): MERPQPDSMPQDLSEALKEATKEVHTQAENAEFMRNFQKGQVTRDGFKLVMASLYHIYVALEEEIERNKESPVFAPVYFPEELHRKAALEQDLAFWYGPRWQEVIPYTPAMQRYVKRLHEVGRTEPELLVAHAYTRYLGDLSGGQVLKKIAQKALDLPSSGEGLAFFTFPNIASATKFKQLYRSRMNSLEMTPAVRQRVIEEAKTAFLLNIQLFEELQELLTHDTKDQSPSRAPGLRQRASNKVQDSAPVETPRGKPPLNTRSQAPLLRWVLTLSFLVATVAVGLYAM

Structure (SMILES) | Activity (Enterococcus faecalis) | MIC (Mycobacterium avium [1]) | Activity (Pichia kudriavzevii) | Activity (Escherichia coli) | MIC (Mycobacterium kansasii [2]) | Activity (Candida albicans) | Activity (Klebsiella pneumoniae [3]) | Activity (Candida tropicalis) | Activity [4] | MIC [5] | MIC (Mycobacterium kansasii [6]) | MIC (Mycobacterium kansasii [7]) | MIC [8] | MIC (Mycobacterium avium [10]) | Activity (Salmonella typhimurium [11]) | Activity (Salmonella typhimurium [12]) | MIC (Mycobacterium kansasii [14]) | IC50 [17] | MIC (Mycobacterium kansasii [19]) | MIC (Mycobacterium kansasii [20]) | other results
O=[N+]([O-])c1cc(C[Se]c2nnn(Cc3ccccc3)n2)cc([N+](=O)[O-])c1 | inactive | 16 µM (≈ 6.71 µg/mL) | inactive | inactive | 1 µM (≈ 0.419 µg/mL) | inactive | inactive | inactive | inactive | 1 µM (≈ 0.419 µg/mL) | 1 µM (≈ 0.419 µg/mL) | 2 µM (≈ 0.839 µg/mL) | 1 µM (≈ 0.419 µg/mL) | 32 µM (≈ 13.4 µg/mL) | Toxic | Toxic | 1 µM (≈ 0.419 µg/mL) | 136 µM | 1 µM (≈ 0.419 µg/mL) | 1 µM (≈ 0.419 µg/mL) | Activity (Trichosporon asahii): inactive; Activity (Pseudomonas aeruginosa): inactive; Activity (Staphylococcus aureus [9]): inactive; Activity (Klebsiella pneumoniae [13]): inactive; Activity (Aspergillus fumigatus): inactive; Activity (Klebsiella pneumoniae [15]): inactive; Activity [16]: inactive; Activity (Lichtheimia corymbifera): inactive; Activity (Staphylococcus aureus [18]): inactive; Activity (Nakaseomyces glabratus): inactive
O=C(CCc1ccccc1)Cn1cnnn1 | – | – | – | – | – | – | – | – | – | – | – | – | – | – | – | – | – | – | – | – | IC50 (Heme oxygenase 1): 2.6 µM
O=[N+]([O-])c1cc(CSc2nnn(Cc3ccc(Cl)cc3)n2)cc([N+](=O)[O-])c1 | – | 16 µM (≈ 6.51 µg/mL) | – | – | 16 µM (≈ 6.51 µg/mL) | – | – | – | – | 2 µM (≈ 0.814 µg/mL) | 4 µM (≈ 1.63 µg/mL) | 32 µM (≈ 13 µg/mL) | 1 µM (≈ 0.407 µg/mL) | 16 µM (≈ 6.51 µg/mL) | Toxic | Toxic | 16 µM (≈ 6.51 µg/mL) | 301 µM | 8 µM (≈ 3.25 µg/mL) | 16 µM (≈ 6.51 µg/mL) | –
O=[N+]([O-])c1cc(C[Se]c2nnnn2Cc2ccccc2)cc([N+](=O)[O-])c1 | inactive | 32 µM (≈ 13.4 µg/mL) | inactive | inactive | 4 µM (≈ 1.68 µg/mL) | inactive | inactive | inactive | inactive | 2 µM (≈ 0.839 µg/mL) | 2 µM (≈ 0.839 µg/mL) | 8 µM (≈ 3.35 µg/mL) | 1 µM (≈ 0.419 µg/mL) | 32 µM (≈ 13.4 µg/mL) | Toxic | Toxic | 4 µM (≈ 1.68 µg/mL) | 71 µM | 4 µM (≈ 1.68 µg/mL) | 8 µM (≈ 3.35 µg/mL) | Activity (Trichosporon asahii): inactive; Activity (Pseudomonas aeruginosa): inactive; Activity (Staphylococcus aureus [9]): inactive; Activity (Klebsiella pneumoniae [13]): inactive; Activity (Aspergillus fumigatus): inactive; Activity (Klebsiella pneumoniae [15]): inactive; Activity [16]: inactive; Activity (Lichtheimia corymbifera): inactive; Activity (Staphylococcus aureus [18]): inactive; Activity (Nakaseomyces glabratus): inactive
O=[N+]([O-])c1cc(CSc2nnn(Cc3ccccc3)n2)cc([N+](=O)[O-])c1 | inactive | 62 µM (≈ 23.1 µg/mL) | inactive | inactive | 4 µM (≈ 1.49 µg/mL) | inactive | inactive | inactive | inactive | 1 µM (≈ 0.372 µg/mL) | 8 µM (≈ 2.98 µg/mL) | 8 µM (≈ 2.98 µg/mL) | 1 µM (≈ 0.372 µg/mL) | 125 µM (≈ 46.5 µg/mL) | Toxic | Toxic | 16 µM (≈ 5.96 µg/mL) | 41 µM | 16 µM (≈ 5.96 µg/mL) | 4 µM (≈ 1.49 µg/mL) | Activity (Trichosporon asahii): inactive; Activity (Pseudomonas aeruginosa): inactive; Activity (Staphylococcus aureus [9]): inactive; Activity (Klebsiella pneumoniae [13]): inactive; Activity (Aspergillus fumigatus): inactive; Activity (Klebsiella pneumoniae [15]): inactive; Activity [16]: inactive; Activity (Lichtheimia corymbifera): inactive; Activity (Staphylococcus aureus [18]): inactive; Activity (Nakaseomyces glabratus): inactive
O=[N+]([O-])c1cc(CSc2nnnn2Cc2ccc(Cl)cc2)cc([N+](=O)[O-])c1 | – | 125 µM (≈ 50.9 µg/mL) | – | – | 4 µM (≈ 1.63 µg/mL) | – | – | – | – | 4 µM (≈ 1.63 µg/mL) | 2 µM (≈ 0.814 µg/mL) | 8 µM (≈ 3.25 µg/mL) | 2 µM (≈ 0.814 µg/mL) | 125 µM (≈ 50.9 µg/mL) | Toxic | Toxic | 4 µM (≈ 1.63 µg/mL) | 94 µM | 2 µM (≈ 0.814 µg/mL) | 8 µM (≈ 3.25 µg/mL) | –
O=[N+]([O-])c1cc(CSc2nnnn2Cc2ccccc2)cc([N+](=O)[O-])c1 | inactive | 250 µM (≈ 93.1 µg/mL) | inactive | inactive | 2 µM (≈ 0.745 µg/mL) | inactive | inactive | inactive | inactive | 2 µM (≈ 0.745 µg/mL) | 2 µM (≈ 0.745 µg/mL) | 4 µM (≈ 1.49 µg/mL) | 1 µM (≈ 0.372 µg/mL) | 250 µM (≈ 93.1 µg/mL) | Non-toxic | Non-toxic | 8 µM (≈ 2.98 µg/mL) | 59 µM | 8 µM (≈ 2.98 µg/mL) | 4 µM (≈ 1.49 µg/mL) | Activity (Trichosporon asahii): inactive; Activity (Pseudomonas aeruginosa): inactive; Activity (Staphylococcus aureus [9]): inactive; Activity (Klebsiella pneumoniae [13]): inactive; Activity (Aspergillus fumigatus): inactive; Activity (Klebsiella pneumoniae [15]): inactive; Activity [16]: inactive; Activity (Lichtheimia corymbifera): inactive; Activity (Staphylococcus aureus [18]): inactive; Activity (Nakaseomyces glabratus): inactive

From ChEMBL document CHEMBL3621085, “Tetrazole regioisomers in the development of nitro group-containing antitubercular agents” (Medchemcomm, 2015)
